Data: ChEMBL document CHEMBL1201862, “PubChem BioAssay data set” (2004)
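Protocol summary: plate cells (96-well), add compound at 5 concentrations, incubate 48 h, interpolate endpoints linearly. GI50 is the concentration that inhibits growth by half.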 Activity calls are given as the source filed them. Rule as the data show it: active = GI50 up to about 1.1 µM and inactive = higher.

Tests used:
Assay in all cases: NCI tumour cell line growth inhibition, 48 h
786-0 = tested on: 786-0
A498 = tested on: A498
A549 = tested on: A549
ACHN = tested on: ACHN
CAKI-1 = tested on: CAKI-1
CCRF-CEM = tested on: CCRF-CEM
COLO 205 = tested on: COLO 205
DLD-1 = tested on: DLD-1
DMS-114 = tested on: DMS-114
DMS-273 = tested on: DMS-273
EKVX = tested on: EKVX
HCC 2998 = tested on: HCC 2998
HCT-116 = tested on: HCT-116
HCT-15 = tested on: HCT-15
HL-60 = tested on: HL-60
HOP-62 = tested on: HOP-62
HT-29 = tested on: HT-29
IGROV-1 = tested on: IGROV-1
K562 = tested on: K562
KM12 = tested on: KM12
LOX IMVI = tested on: LOX IMVI
LXFL 529 = tested on: LXFL 529
M14 = tested on: M14
M19-MEL = tested on: M19-MEL
MOLT-4 = tested on: MOLT-4
Malme-3M = tested on: Malme-3M
NCI-H226 = tested on: NCI-H226
NCI-H23 = tested on: NCI-H23
NCI-H460 = tested on: NCI-H460
NCI-H522 = tested on: NCI-H522
OVCAR-3 = tested on: OVCAR-3
OVCAR-4 = tested on: OVCAR-4
OVCAR-5 = tested on: OVCAR-5
OVCAR-8 = tested on: OVCAR-8
RPMI-8226 = tested on: RPMI-8226
SF-268 = tested on: SF-268
SF-295 = tested on: SF-295
SF-539 = tested on: SF-539
SK-MEL-28 = tested on: SK-MEL-28
SK-MEL-2 = tested on: SK-MEL-2
SK-MEL-5 = tested on: SK-MEL-5
SK-OV-3 = tested on: SK-OV-3
SN12C = tested on: SN12C
SNB-19 = tested on: SNB-19
SNB-75 = tested on: SNB-75
SR = tested on: SR
SW-620 = tested on: SW-620
TK-10 = tested on: TK-10
U-251 = tested on: U-251
UACC-257 = tested on: UACC-257
UACC-62 = tested on: UACC-62
UO-31 = tested on: UO-31
HOP-92 = tested on: HOP-92
KM-20L2 = tested on: KM-20L2
RXF 393 = tested on: RXF 393

Q: Which results are given for `CCOC(=O)C(Cc1ccccc1)NC(=O)c1ccc(/N=N/N(C)C)cc1` (stereo unspecified)?
A: GI50 (786-0): > 100 µM (inactive); GI50 (A498): > 100 µM (inactive); GI50 (A549): > 100 µM (inactive); GI50 (ACHN): > 100 µM (inactive); GI50 (CAKI-1): > 100 µM (inactive); GI50 (CCRF-CEM): > 100 µM (inactive); GI50 (COLO 205): > 100 µM (inactive); GI50 (DLD-1): > 100 µM (inactive); GI50 (DMS-114): > 100 µM (inactive); GI50 (DMS-273): > 100 µM (inactive); GI50 (EKVX): > 100 µM (inactive); GI50 (HCC 2998): > 100 µM (inactive); GI50 (HCT-116): > 100 µM (inactive); GI50 (HCT-15): > 100 µM; GI50 (HL-60): > 100 µM (inactive); GI50 (HOP-62): > 100 µM (inactive); GI50 (HT-29): > 100 µM (inactive); GI50 (IGROV-1): > 100 µM (inactive); GI50 (K562): > 100 µM (inactive); GI50 (KM12): > 100 µM (inactive); GI50 (LOX IMVI): > 100 µM (inactive); GI50 (LXFL 529): > 100 µM (inactive); GI50 (M14): > 100 µM (inactive); GI50 (M19-MEL): > 100 µM (inactive); GI50 (MOLT-4): > 100 µM (inactive); GI50 (Malme-3M): > 100 µM (inactive); GI50 (NCI-H226): > 100 µM (inactive); GI50 (NCI-H23): > 100 µM (inactive); GI50 (NCI-H460): > 100 µM (inactive); GI50 (NCI-H522): > 100 µM (inactive); GI50 (OVCAR-3): > 100 µM (inactive); GI50 (OVCAR-4): > 100 µM (inactive); GI50 (OVCAR-5): > 100 µM (inactive); GI50 (OVCAR-8): > 100 µM (inactive); GI50 (RPMI-8226): > 100 µM (inactive); GI50 (SF-268): > 100 µM (inactive); GI50 (SF-295): > 100 µM (inactive); GI50 (SF-539): > 100 µM (inactive); GI50 (SK-MEL-28): > 100 µM (inactive); GI50 (SK-MEL-2): > 100 µM (inactive); GI50 (SK-MEL-5): > 100 µM (inactive); GI50 (SK-OV-3): > 100 µM (inactive); GI50 (SN12C): > 100 µM (inactive); GI50 (SNB-19): > 100 µM (inactive); GI50 (SNB-75): > 100 µM (inactive); GI50 (SR): > 100 µM (inactive); GI50 (SW-620): > 100 µM (inactive); GI50 (TK-10): > 100 µM (inactive); GI50 (U-251): > 100 µM (inactive); GI50 (UACC-257): > 100 µM (inactive); GI50 (UACC-62): > 100 µM (inactive); GI50 (UO-31): > 100 µM (inactive)

Q: Which results are given for `COC(=O)C1=CCC2c3[nH]c4ccccc4c3CCN2C1` (stereo unspecified)?
A: GI50 (786-0): > 354 µM (inactive); GI50 (A549): > 354 µM (inactive); GI50 (ACHN): > 354 µM (inactive); GI50 (CAKI-1): > 354 µM (inactive); GI50 (CCRF-CEM): > 354 µM (inactive); GI50 (COLO 205): > 354 µM (inactive); GI50 (DLD-1): > 354 µM (inactive); GI50 (DMS-114): > 354 µM (inactive); GI50 (DMS-273): > 354 µM (inactive); GI50 (EKVX): 343 µM (inactive); GI50 (HCC 2998): > 354 µM (inactive); GI50 (HCT-116): 242 µM (inactive); GI50 (HCT-15): > 354 µM; GI50 (HL-60): > 354 µM (inactive); GI50 (HOP-62): > 354 µM (inactive); GI50 (HOP-92): > 354 µM (inactive); GI50 (HT-29): > 354 µM (inactive); GI50 (IGROV-1): > 354 µM (inactive); GI50 (K562): > 354 µM (inactive); GI50 (KM-20L2): > 354 µM (inactive); GI50 (KM12): > 354 µM (inactive); GI50 (LOX IMVI): > 354 µM (inactive); GI50 (LXFL 529): > 354 µM (inactive); GI50 (M19-MEL): > 354 µM (inactive); GI50 (MOLT-4): > 354 µM (inactive); GI50 (Malme-3M): > 354 µM (inactive); GI50 (NCI-H226): 203 µM (inactive); GI50 (NCI-H23): > 354 µM (inactive); GI50 (NCI-H460): > 354 µM (inactive); GI50 (NCI-H522): 154 µM (inactive); GI50 (OVCAR-3): 275 µM (inactive); GI50 (OVCAR-8): > 354 µM (inactive); GI50 (RPMI-8226): > 354 µM (inactive); GI50 (RXF 393): > 354 µM (inactive); GI50 (SF-268): > 354 µM (inactive); GI50 (SF-295): > 354 µM (inactive); GI50 (SF-539): > 354 µM (inactive); GI50 (SK-MEL-28): > 354 µM (inactive); GI50 (SK-MEL-2): > 354 µM (inactive); GI50 (SK-MEL-5): > 354 µM (inactive); GI50 (SK-OV-3): > 354 µM (inactive); GI50 (SN12C): > 354 µM (inactive); GI50 (SNB-19): 193 µM (inactive); GI50 (SR): > 354 µM (inactive); GI50 (SW-620): > 354 µM (inactive); GI50 (TK-10): > 354 µM (inactive); GI50 (U-251): > 354 µM (inactive); GI50 (UACC-257): 169 µM (inactive); GI50 (UACC-62): > 354 µM (inactive)
